Experimental data as given in patent US20240067693A1, “POLYPEPTIDES AND USES THEREOF” (MEDIMMUNE LIMITED, priority 2020, published 2024).
Numbered stars: 1 amine (or outer) side, 2 acyl side, 3 side chain; on linkers, the order of the positions; unused ones are H or OH. Bridge positions count the residues as written; N and C are the ends. Square brackets hold non-standard residues; d marks the D form. Side chains are listed from the residue outwards. Peptide text beside a SMILES is read from it. * marks the point of attachment. C18 diacid = O=C(O)CCCCCCCCCCCCCCCCC(=O)*; γGlu = O=C(O)[C@H](CCC(=O)[*:2])N[*:1]; Aib = CC(C)(N)C(=O)O

Tests used:
[1] = molecular target: T1, human calcitonin receptor (hCTR) (Homo sapiens, UniProt P30988); experiment: cAMP production in 1321N1 cells with stable recombinant expression of human calcitonin receptor (hCTR); assay type: cell-based; conditions: cAMP, 1321N1 cells, assay buffer with 0.1% BSA; read-out: EC50 (pM) hCTR
T1 construct: expressed in transfected cells
T1 sequence (P30988 25-474): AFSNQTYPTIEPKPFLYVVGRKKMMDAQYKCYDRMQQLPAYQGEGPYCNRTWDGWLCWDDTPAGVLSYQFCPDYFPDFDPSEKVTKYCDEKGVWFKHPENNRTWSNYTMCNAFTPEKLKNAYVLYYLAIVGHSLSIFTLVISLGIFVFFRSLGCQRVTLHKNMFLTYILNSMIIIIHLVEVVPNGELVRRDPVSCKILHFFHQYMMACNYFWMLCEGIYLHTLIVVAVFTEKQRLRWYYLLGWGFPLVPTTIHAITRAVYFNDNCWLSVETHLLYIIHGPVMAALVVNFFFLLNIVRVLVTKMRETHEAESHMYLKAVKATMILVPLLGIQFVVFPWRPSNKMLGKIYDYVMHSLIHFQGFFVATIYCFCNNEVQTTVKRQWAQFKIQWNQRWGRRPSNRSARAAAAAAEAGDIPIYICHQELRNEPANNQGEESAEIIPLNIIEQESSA
How it was run: (§1)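 Thawed cells in HBSS/0.1% BSA/25 mM HEPES pH 7.4 with 0.5 mM IBMX were incubated with peptides 30 min at room temperature; cAMP read by HTRF. EC50 from 4-parameter fit of % activation relative to maximal amylin or calcitonin effect.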

[2] = molecular target: T2, human amylin receptor (calcitonin receptor co-expressed with receptor activity modifying protein, RAMP3) (hAMYR3) (Homo sapiens, UniProt O60896+P30988); experiment: cAMP production in 1321N1 cells with stable recombinant expression of human amylin receptor (hAMYR3); assay type: cell-based; conditions: for Ratio (selectivity hAMYR vs hCTR, ratio of EC50 values at the two receptors): EC50 hCTR / EC50 hAMYR3; for EC50: cAMP, 1321N1 cells, assay buffer with 0.1% BSA, read-out: EC50 (pM) hAMYR3
T2 construct: expressed in transfected cells
T2 sequence (P30988 25-474): T1 sequence (P30988 25-474)
T2 sequence (O60896 24-148 partner): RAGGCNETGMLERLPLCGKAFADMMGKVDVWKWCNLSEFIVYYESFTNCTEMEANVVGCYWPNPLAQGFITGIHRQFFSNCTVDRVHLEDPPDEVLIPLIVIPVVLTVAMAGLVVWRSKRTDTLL
How it was run: as §1

| Compound | EC50 [1] [pM] | Ratio (selectivity hAMYR vs hCTR, ratio of EC50 values at the two receptors) [2] | EC50 [2] [pM] |
| --- | --- | --- | --- |
| CC[C@H](C)[C@H](NC(=O)[C@@H]1CCCN1C(=O)CNC(=O)[C@H](Cc1ccccc1)NC(=O)[C@H](CC(N)=O)NC(=O)C(C)(C)NC(=O)[C@H](CO)NC(=O)[C@H](CO)NC(=O)[C@H](Cc1c[nH]cn1)NC(=O)[C@H](CO)NC(=O)[C@H](CC(C)C)NC(=O)[C@H](Cc1ccccc1)NC(=O)[C@H](CC(N)=O)NC(=O)[C@H](C)NC(=O)[C@H](CC(C)C)NC(=O)[C@H](CCCNC(=N)N)NC(=O)[C@H](CCC(N)=O)NC(=O)[C@@H](NC(=O)[C@H](C)NC(=O)[C@@H]1CSSC[C@H](NC(=O)[C@H](CCCCN)NC(=O)[C@@H](N)CCCCNC(=O)CC[C@H](NC(=O)CCCCCCCCCCCCCCCCC(=O)O)C(=O)O)C(=O)N[C@@H](CC(N)=O)C(=O)N[C@@H]([C@@H](C)O)C(=O)N[C@@H](C)C(=O)N[C@@H]([C@@H](C)O)C(=O)N1)[C@@H](C)O)C(=O)N[C@@H](CC(C)C)C(=O)N1CCC[C@H]1C(=O)N1CCC[C@H]1C(=O)N[C@H](C(=O)N1CCC[C@H]1C(=O)N[C@H](C(=O)NCC(=O)N[C@@H](CO)C(=O)N[C@@H](CC(N)=O)C(=O)N[C@H](C(=O)N[C@@H](Cc1ccc(O)cc1)C(N)=O)[C@@H](C)O)C(C)C)[C@@H](C)O [Peptide 53, K(γE-C18diacid)K[CNTATC]ATQRLANFLSHSS(Aib)NFGPILPPTPVGSNTY-amide] (H-K([γGlu-C18 diacid])KCNTATCATQRLANFLSHSS[Aib]NFGPILPPTPVGSNTY-NH2; disulfide 3-8; N-terminus assumed) | 235 | 2 | 98 |
| CC[C@H](C)[C@H](NC(=O)[C@@H]1CCCN1C(=O)CNC(=O)[C@H](Cc1ccccc1)NC(=O)[C@H](CC(N)=O)NC(=O)[C@H](CC(N)=O)NC(=O)[C@H](CO)NC(=O)[C@H](CO)NC(=O)[C@H](Cc1c[nH]cn1)NC(=O)C(C)(C)NC(=O)[C@H](CC(C)C)NC(=O)[C@H](Cc1ccccc1)NC(=O)[C@H](CC(N)=O)NC(=O)[C@H](C)NC(=O)[C@H](CC(C)C)NC(=O)[C@H](CCCNC(=N)N)NC(=O)[C@H](CCC(N)=O)NC(=O)[C@@H](NC(=O)[C@H](C)NC(=O)[C@@H]1CSSC[C@H](NC(=O)[C@@H](N)CCCCNC(=O)CC[C@H](NC(=O)CCCCCCCCCCCCCCCCC(=O)O)C(=O)O)C(=O)N[C@@H](CC(N)=O)C(=O)N[C@@H]([C@@H](C)O)C(=O)N[C@@H](C)C(=O)N[C@@H]([C@@H](C)O)C(=O)N1)[C@@H](C)O)C(=O)N[C@H](CC(C)C)C(=O)N1CCC[C@H]1C(=O)N1CCC[C@H]1C(=O)N[C@H](C(=O)N[C@@H](CC(N)=O)C(=O)N[C@H](C(=O)NCC(=O)N[C@@H](CO)C(=O)N[C@@H](CC(N)=O)C(=O)N[C@H](C(=O)N[C@@H](Cc1ccc(O)cc1)C(N)=O)[C@@H](C)O)C(C)C)[C@@H](C)O [Peptide 151, K(γE-C18diacid)[CNTATC]ATQRLANFL(Aib)HSSNNFGPI(dL)PPTNVGSNTY-amide] (H-K([γGlu-C18 diacid])CNTATCATQRLANFL[Aib]HSSNNFGPI[dL]PPTNVGSNTY-NH2; disulfide 2-7; N-terminus assumed) | 898 | 14.7 | 61 |
| CC[C@H](C)[C@H](NC(=O)[C@@H]1CCCN1C(=O)CNC(=O)[C@H](Cc1ccccc1)NC(=O)[C@H](CC(N)=O)NC(=O)C(C)(C)NC(=O)[C@H](CO)NC(=O)[C@H](CO)NC(=O)[C@H](Cc1c[nH]cn1)NC(=O)[C@@H](NC(=O)[C@H](CC(C)C)NC(=O)[C@H](Cc1ccccc1)NC(=O)[C@H](CC(N)=O)NC(=O)[C@H](C)NC(=O)[C@H](CC(C)C)NC(=O)[C@H](CCCNC(=N)N)NC(=O)[C@H](CCC(N)=O)NC(=O)[C@@H](NC(=O)[C@H](C)NC(=O)[C@@H]1CSSC[C@H](NC(=O)[C@@H](N)CCCCNC(=O)CC[C@H](NC(=O)CCCCCCCCCCCCCCCCC(=O)O)C(=O)O)C(=O)N[C@@H](CC(N)=O)C(=O)N[C@@H]([C@@H](C)O)C(=O)N[C@@H](C)C(=O)N[C@@H]([C@@H](C)O)C(=O)N1)[C@@H](C)O)C(C)C)C(=O)N[C@@H](CC(C)C)C(=O)N1CCC[C@H]1C(=O)N1CCC[C@H]1C(=O)N[C@H](C(=O)N[C@@H](CCCNC(=N)N)C(=O)N[C@H](C(=O)NCC(=O)N[C@@H](CO)C(=O)N[C@@H](CC(N)=O)C(=O)N[C@H](C(=O)N[C@@H](Cc1ccc(O)cc1)C(N)=O)[C@@H](C)O)C(C)C)[C@@H](C)O [Peptide 63, K(γE-C18diacid)[CNTATC]ATQRLANFLVHSS(Aib)NFGPILPPTRVGSNTY-amide] (H-K([γGlu-C18 diacid])CNTATCATQRLANFLVHSS[Aib]NFGPILPPTRVGSNTY-NH2; disulfide 2-7; N-terminus assumed) | 375 | 5 | 76 |
| CC[C@H](C)[C@H](NC(=O)[C@@H]1CCCN1C(=O)CNC(=O)[C@H](Cc1ccccc1)NC(=O)[C@H](CC(N)=O)NC(=O)C(C)(C)NC(=O)[C@H](CO)NC(=O)[C@H](CO)NC(=O)[C@H](Cc1c[nH]cn1)NC(=O)C(C)(C)NC(=O)[C@H](CC(C)C)NC(=O)[C@H](Cc1ccccc1)NC(=O)[C@H](Cc1c[nH]cn1)NC(=O)[C@H](C)NC(=O)[C@H](CC(C)C)NC(=O)[C@H](CCCNC(=N)N)NC(=O)[C@H](CCC(N)=O)NC(=O)[C@@H](NC(=O)[C@H](C)NC(=O)[C@@H]1CSSC[C@H](NC(=O)[C@H](CCCCN)NC(=O)[C@@H](N)CCCCNC(=O)CC[C@H](NC(=O)CCCCCCCCCCCCCCCCC(=O)O)C(=O)O)C(=O)N[C@@H](CC(N)=O)C(=O)N[C@@H]([C@@H](C)O)C(=O)N[C@@H](C)C(=O)N[C@@H]([C@@H](C)O)C(=O)N1)[C@@H](C)O)C(=O)N[C@@H](CC(C)C)C(=O)N1CCC[C@H]1C(=O)N1CCC[C@H]1C(=O)N[C@H](C(=O)N[C@@H](CCC(=O)O)C(=O)N[C@H](C(=O)NCC(=O)N[C@@H](CO)C(=O)N[C@@H](CC(N)=O)C(=O)N[C@H](C(=O)N[C@@H](Cc1ccc(O)cc1)C(N)=O)[C@@H](C)O)C(C)C)[C@@H](C)O [Peptide 86, K(γE-C18diacid)K[CNTATC]ATQRLAHFL(Aib)HSS(Aib)NFGPILPPTEVGSNTY-amide] (H-K([γGlu-C18 diacid])KCNTATCATQRLAHFL[Aib]HSS[Aib]NFGPILPPTEVGSNTY-NH2; disulfide 3-8) | 311 | 3 | 119 |
